Measured values reported in patent US20250213563A1, “SUBSTITUTED PYRIMIDIN-4(3H)-ONES FOR USE IN TREATING CANCER” (NAVIRE PHARMA, INC., priority 2021, published 2025).

Experiments:
[1] = Single-dose pharmacokinetics, Beagle dog; assay type: in vivo, male); conditions: free base; for AUC(0-t): read-out: AUC0→24
Procedure: (§1) The pharmacokinetic (PK) parameters of Compound (10b) (freebase) were determined following single intravenous (IV) and oral (PO) administration in female CD-1 mouse, female C57BL/6 mouse (PO only), male Sprague Dawley rat, male Beagle dog, and male Cynomolgus monkey. Additional evaluation of the PK properties of Compound (10b) was obtained following single dose PO administration in female CD-1 mouse, male Sprague Dawley rat and male Beagle dog over a dose range spanning 10 to 300 mg/kg (mouse and rat) and 1 to 100 mg/kg (dog). The intravenous dose solutions were prepared in 20% DMSO-60% PEG400-20% water and the oral dose solutions as suspensions in 0.5% methylcellulose in water, unless otherwise noted. Plasma concentration profiles were generated from serial sampling in individual animals up to 24 hours post dose, except for the studies in mice where composite sampling methods were used (i.e. 3 sampling times per mouse; 9 mice per group). […] Exposures increased with increasing dose level across species, in a dose-proportional manner in mouse and dog, and in a greater than dose-proportional manner in rat (80× increase in AUC with a 30× increase in dosage).

[2] = Single-dose pharmacokinetics, CD-1 mouse; assay type: in vivo, mouse (CD-1, female); conditions: for AUC(0-t): read-out: AUC0→24
Procedure: as §1

[3] = molecular target: T1, full-length human SHP2 wild-type enzyme (Homo sapiens, UniProt Q06124); test: SHP2 enzymatic assay (DiFMUP), full-length enzyme; assay type: biochemical; conditions: in presence of 1 μM bistyrosylphorphorylated peptide; mean±SD, 34 independent test occasions
T1 construct: full-length human SHP2 (amino acid 1-597); 6xHis (TEV site) (N, cleaved yes); made in house; host or cells: E. coli BL21 (DE3)
T1 sequence (Q06124 1-597 isoform Q06124-1): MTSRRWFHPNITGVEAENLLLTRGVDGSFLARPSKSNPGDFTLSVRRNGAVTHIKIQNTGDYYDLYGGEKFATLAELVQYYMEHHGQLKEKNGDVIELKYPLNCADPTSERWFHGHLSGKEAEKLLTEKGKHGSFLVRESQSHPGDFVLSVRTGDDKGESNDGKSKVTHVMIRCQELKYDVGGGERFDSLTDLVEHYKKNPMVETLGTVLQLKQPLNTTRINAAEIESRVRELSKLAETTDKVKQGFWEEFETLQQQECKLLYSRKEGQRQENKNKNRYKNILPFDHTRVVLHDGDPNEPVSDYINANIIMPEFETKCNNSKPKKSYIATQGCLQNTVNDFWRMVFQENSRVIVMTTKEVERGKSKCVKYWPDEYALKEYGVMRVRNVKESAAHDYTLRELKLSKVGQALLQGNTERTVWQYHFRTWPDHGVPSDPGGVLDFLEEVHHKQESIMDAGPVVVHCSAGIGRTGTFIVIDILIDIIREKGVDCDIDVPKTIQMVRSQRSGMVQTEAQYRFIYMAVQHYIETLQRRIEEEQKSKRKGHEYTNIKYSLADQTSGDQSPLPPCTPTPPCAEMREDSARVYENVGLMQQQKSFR
Procedure: Protein purification: The recombinant DNA for full-length human SHP2 (amino acid 1-597) or the phosphatase domain of human SHP2 (amino acid Ala237-Ile529) was cloned into a pET30 vector (Sigma #69909-3), which was modified to contain a TEV protease site after the N-terminal 6×His tag. The expression vector was transformed into E. coli BL21 (DE3) (NEB #C2527H). The protein was expressed and purified by the following procedure. Bacterial cells from a 50 mL overnight culture were inoculated in 6 L of terrific broth media. Once the E. coli culture reached an OD600 of 0.7, the temperature was lowered to 18° C. and recombinant protein expression was induced by the addition of 0.5 mM IPTG. After overnight incubation, the cells were harvested by centrifugation at […] for 45 min in a Sorvall Lynx 6000 (Thermo Fisher) centrifuge with F9-6×1000 LEX rotor. The cell pellets were stored at −80° C. until purification. […] The final product was 98% pure as determined by SDS-PAGE. The concentration of SHP2 protein was determined from the absorbance at 280 nm wavelength, using the calculated molar extinction coefficient for SHP2 protein of 72770 M^−1 cm^−1.
SHP2 enzymatic assay: Phosphatase activity of full-length human SHP2 wild-type enzyme or SHP2 phosphatase domain was measured using fluorogenic 6,8-difluoro-4-methylumbelliferyl phosphate (DiFMUP; Molecular Probes #D6567) as the substrate. […]

[4] = male, Beagle, dog, plasma, IV 1 mg/kg
[5] = male, Beagle, dog, plasma, oral 10 mg/kg
[6] = female, CD-1, mouse, plasma, IV 1 mg/kg, free base
[7] = female, CD-1, mouse, plasma, oral 10 mg/kg, free base

SMILES: Cc1c(N2CCC3(CC2)CO[C@@H](C)[C@H]3N)nc(C)n(-c2cccc(Cl)c2Cl)c1=O (atropisomer, axis not shown; (Ra)) [Compound (10b), 6-((3S,4S)-4-amino-3-methyl-2-oxa-8-azaspiro[4.5]decan-8-yl)-3-(Ra)-(2,3-dichlorophenyl)-2,5-dimethylpyrimidin-4(3H)-one]
- half-life [1, 4]: 494 min
- AUC(0-t) [1, 4]: 3.91 µM·h
- clearance ([1]; male, Beagle, dog, plasma, IV 1 mg/kg, read-out: Clp (converted)): 8.5 mL/min/kg
- Vd ([1]; male, Beagle, dog, plasma, IV 1 mg/kg, read-out: Vdss): 5.46 L/kg
- Cmax [1, 5]: 6.37 µM
- Tmax [1, 5]: 49.8 min
- AUC(0-t) [1, 5]: 48.2 µM·h
- F ([1]; oral 10 mg/kg): 115%
- half-life [2, 6]: 133 min
- AUC(0-t) [2, 6]: 1.39 µM·h
- clearance ([2]; female, CD-1, mouse, plasma, IV 1 mg/kg, free base, read-out: Clp (converted)): 25.7 mL/min/kg
- Vd ([2]; female, CD-1, mouse, plasma, IV 1 mg/kg, free base, read-out: Vdss): 3.84 L/kg
- Cmax [2, 7]: 4.17 µM
- AUC(0-t) [2, 7]: 12.5 µM·h
- Tmax ([2]; female, CD-1, mouse, plasma, oral 10 mg/kg, free base, read-out: Tmax (mean)): 15 min
- Tmax ([2]; female, CD-1, mouse, plasma, oral 300 mg/kg, read-out: mean Tmax): 15 min
- F ([2]; oral 10 mg/kg, free base): 84.1%
- IC50 [3]: 13.2 ± 10.6 nM
